Data: patent publication US12378224B2 (Dong-A Socio Holdings Co., Ltd., priority 2016, dated 2025)

Target: human MER (528-end) (Homo sapiens (Human), UniProt Q12866)
Assay: HTRF Kinase Activity Biochemical Assay (KinEASE-TK)
Settings: 10 uM ATP
Method in brief: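 Recombinant human MER (528-end) phosphorylated biotin-TK peptide substrate, 1 h at room temperature. Reaction stopped with detection buffer containing 0.375 nM Eu3+-cryptate anti-TK antibody and 0.062 uM streptavidin-XL665, 1 h further. Activity taken as HTRF ratio 665/620 nm ×10,000, 340 nm excitation.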

human MER (528-end), sequence (Q12866 528-999 limits assumed): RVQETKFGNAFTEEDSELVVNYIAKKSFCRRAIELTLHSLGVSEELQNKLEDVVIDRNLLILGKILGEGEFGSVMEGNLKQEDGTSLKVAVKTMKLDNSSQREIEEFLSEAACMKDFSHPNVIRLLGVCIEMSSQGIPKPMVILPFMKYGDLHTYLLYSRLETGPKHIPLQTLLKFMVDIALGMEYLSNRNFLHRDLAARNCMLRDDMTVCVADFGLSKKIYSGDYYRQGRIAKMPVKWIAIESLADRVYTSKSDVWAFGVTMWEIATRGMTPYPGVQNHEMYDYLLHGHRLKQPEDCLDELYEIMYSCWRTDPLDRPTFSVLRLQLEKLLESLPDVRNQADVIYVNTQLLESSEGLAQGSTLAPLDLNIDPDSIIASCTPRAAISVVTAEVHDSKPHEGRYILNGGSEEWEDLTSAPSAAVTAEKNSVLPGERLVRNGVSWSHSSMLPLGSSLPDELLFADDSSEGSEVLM

Structure (SMILES) | IC50 [µM]
Cc1c(C(=O)N2CC[C@@H](NC(=O)c3cc(-c4cnn(C)c4)cnc3N)C2)oc2ccccc12 [Example 402, (R)-2-amino-5-(1-methyl-1H-pyrazol-4-yl)-N-(1-(3-methylbenzofuran-2-carbonyl)pyrrolidin-3-yl)nicotinamide] | > 1
Cn1cc(-c2cnc(N)c(C(=O)N[C@@H]3CCN(C(=O)c4cccc(-c5cccc(Cn6ccnc6)c5)c4)C3)c2)cn1 [Example 460, (R)—N-(1-(3′-((1H-imidazol-1-yl)methyl)-[1,1′-biphenyl]-3-carbonyl)pyrrolidin-3-yl)-2-amino-5-(1-methyl-1H-pyrazol-4-yl)nicotinamide] | > 1
Cn1cc(-c2cnc(N)c(C(=O)N[C@@H]3CCN(C(=O)c4ccc(-c5cc(Cl)c(F)c(Cl)c5)cc4)C3)c2)cn1 [Example 664, (R)-2-amino-N-(1-(3′,5′-dichloro-4′-fluoro-[1,1′-biphenyl]-4-carbonyl)pyrrolidin-3-yl)-5-(1-methyl-1H-pyrazol-4-yl)nicotinamide] | 0.1 to 1
Cn1cc(-c2cnc(N)c(C(=O)N[C@@H]3CCN(C(=O)Nc4cccc(-c5ccccc5)c4)C3)c2)cn1 [Example 23, (R)—N-(1-([1,1′-biphenyl]-3-ylcarbamoyl)pyrrolidin-3-yl)-2-amino-5-(1-methyl-1H-pyrazol-4-yl)nicotinamide] | 0.1 to 1
Cn1cc(-c2cnc(N)c(C(=O)N[C@@H]3CCN(C(=O)N4CCc5cccc(Br)c5C4)C3)c2)cn1 [Example 29, (R)-2-amino-N-(1-(8-bromo-1,2,3,4-tetrahydroisoquinoline-2-carbonyl)pyrrolidin-3-yl)-5-(1-methyl-1H-pyrazol-4-yl)nicotinamide] | > 1
Cn1cc(-c2cnc(N)c(C(=O)N[C@@H]3CCN(C(=O)c4cc5ccccc5s4)C3)c2)cn1 [Example 406, (R)-2-amino-N-(1-(benzo[b]thiophene-2-carbonyl)pyrrolidin-3-yl)-5-(1-methyl-1H-pyrazol-4-yl)nicotinamide] | 0.1 to 1
Cn1cc(-c2cnc(N)c(C(=O)N[C@@H]3CCN(C(=O)Nc4cccc(-c5cnn(C6CCNCC6)c5)c4)C3)c2)cn1 [Example 260, (R)-2-amino-5-(1-methyl-1H-pyrazol-4-yl)-N-(1-((3-(1-(piperidin-4-yl)-1H-pyrazol-4-yl)phenyl)carbamoyl)pyrrolidin-3-yl)nicotinamide] | > 1
Cn1cc(-c2cnc(N)c(C(=O)N[C@@H]3CCN(C(=O)Oc4cccc(Oc5ccccc5)c4)C3)c2)cn1 [Example 110, 3-phenoxyphenyl (R)-3-(2-amino-5-(1-methyl-1H-pyrazol-4-yl)nicotinamido)pyrrolidine-1-carboxylate] | 0.1 to 1
Cn1cc(-c2cnc(N)c(C(=O)N[C@@H]3CCN(C(=O)c4ccc(-c5ccccc5Br)cc4)C3)c2)cn1 [Example 373, (R)-2-amino-N-(1-(2′-bromo-[1,1′-biphenyl]-4-carbonyl)pyrrolidin-3-yl)-5-(1-methyl-1H-pyrazol-4-yl)nicotinamide] | 0.01 to 0.1
Cn1cc(-c2cnc(N)c(C(=O)N[C@@H]3CCN(C(=O)c4ccc(-c5ccnc(N6CCNCC6)c5)cc4)C3)c2)cn1 [Example 491, (R)-2-amino-5-(1-methyl-1H-pyrazol-4-yl)-N-(1-(4-(2-(piperazin-1-yl)pyridin-4-yl)benzoyl)pyrrolidin-3-yl)nicotinamide] | 0.1 to 1
Cn1cc(-c2cnc(N)c(C(=O)N[C@@H]3CCN(C(=O)/C=C/c4ccc(CN5CCN(CCO)CC5)cc4)C3)c2)cn1 [Example 430, (R,E)-2-amino-N-(1-(3-(4-((4-(2-hydroxyethyl)piperazin-1-yl)methyl)phenyl)acryloyl)pyrrolidin-3-yl)-5-(1-methyl-1H-pyrazol-4-yl)nicotinamide] | > 1
Cn1cc(-c2cnc(N)c(C(=O)N[C@@H]3CCN(C(=O)c4ccc(-c5ccc(Oc6ccccc6)cc5)cc4)C3)c2)cn1 [Example 527, (R)-2-amino-5-(1-methyl-1H-pyrazol-4-yl)-N-(1-(4′-phenoxy-[1,1′-biphenyl]-4-carbonyl)pyrrolidin-3-yl)nicotinamide] | 0.1 to 1
Nc1ncc(-c2ccccc2)cc1C(=O)N[C@@H]1CCN(C(=O)c2ccc(-c3ccc(F)cc3Cl)cc2)C1 [Example 775, (R)-2-amino-N-(1-(2′-chloro-4′-fluoro-[1,1′-biphenyl]-4-carbonyl)pyrrolidin-3-yl)-5-phenylnicotinamide] | 0.1 to 1
COC(=O)c1ccccc1OC(=O)N1CC[C@@H](NC(=O)c2cc(-c3cnn(C)c3)cnc2N)C1 [Example 92, 2-(methoxycarbonyl)phenyl (R)-3-(2-amino-5-(1-methyl-1H-pyrazol-4-yl)nicotinamido)pyrrolidine-1-carboxylate] | > 1
CN1CCN(C(=O)Cc2cccc(-c3cccc(C(=O)N4CC[C@@H](NC(=O)c5cc(-c6cnn(C)c6)cnc5N)C4)c3)c2)CC1 [Example 452, (R)-2-amino-5-(1-methyl-1H-pyrazol-4-yl)-N-(1-(3′-(2-(4-methylpiperazin-1-yl)-2-oxoethyl)-[1,1′-biphenyl]-3-carbonyl)pyrrolidin-3-yl)nicotinamide] | > 1
Cn1cc(-c2cnc(N)c(C(=O)N[C@@H]3CCN(C(=O)c4ccc(-c5ccc(Cl)c(Cl)c5)cc4)C3)c2)cn1 [Example 362, (R)-2-amino-N-(1-(3′,4′-dichloro-[1,1′-biphenyl]-4-carbonyl)pyrrolidin-3-yl)-5-(1-methyl-1H-pyrazol-4-yl)nicotinamide] | 0.1 to 1
Cn1cc(-c2cnc(N)c(C(=O)N[C@@H]3CCN(C(=O)Oc4cccc(-c5ccc(CN6CCCC(O)C6)cc5)c4)C3)c2)cn1 (stereo partly drawn) [Example 319, 4′-((3-hydroxypiperidin-1-yl)methyl)[1,1′-biphenyl]-3-yl (3R)-3-(2-amino-5-(1-methyl-1H-pyrazol-4-yl)nicotinamido)pyrrolidine-1-carboxylate] | 0.1 to 1
Cn1cc(-c2cnc(N)c(C(=O)N[C@@H]3CCN(C(=O)OC4CCCCC4)C3)c2)cn1 [Example 66, cyclohexyl (R)-3-(2-amino-5-(1-methyl-1H-pyrazol-4-yl)nicotinamido)pyrrolidine-1-carboxylate] | > 1
CC(C)c1ccc(CN2CC[C@@H](NC(=O)c3cc(-c4cnn(C)c4)cnc3N)C2)cc1 [Example 212, (R)-2-amino-N-(1-(4-isopropylbenzyl)pyrrolidin-3-yl)-5-(1-methyl-1H-pyrazol-4-yl)nicotinamide] | > 1
Cn1cc(-c2cnc(N)c(C(=O)N[C@@H]3CCN(C(=O)OC4CCC(c5ccccc5)CC4)C3)c2)cn1 (stereo partly drawn) [Example 125, 4-phenylcyclohexyl (R)-3-(2-amino-5-(1-methyl-1H-pyrazol-4-yl)nicotinamido)pyrrolidine-1-carboxylate] | > 1
CN(C)CCNCc1ccc(-c2cccc(OC(=O)N3CC[C@@H](NC(=O)c4cc(-c5cnn(C)c5)cnc4N)C3)c2)cc1 [Example 308, 4′-(((2-(dimethylamino)ethyl)amino)methyl)-[1,1′-biphenyl]-3-yl (R)-3-(2-amino-5-(1-methyl-1H-pyrazol-4-yl)nicotinamido)pyrrolidine-1-carboxylate] | 0.1 to 1
Cn1cc(-c2cnc(N)c(C(=O)N[C@@H]3CCN(Cc4ccccc4Br)C3)c2)cn1 [Example 232, (R)-2-amino-N-(1-(2-bromobenzyl)pyrrolidin-3-yl)-5-(1-methyl-1H-pyrazol-4-yl)nicotinamide] | 0.1 to 1
Nc1ncc(-c2ccc(CO)cc2)cc1C(=O)N[C@@H]1CCN(C(=O)c2ccc(-c3ccccc3)cc2)C1 [Example 568, (R)—N-(1-([1,1′-biphenyl]-4-carbonyl)pyrrolidin-3-yl)-2-amino-5-(4-(hydroxymethyl)phenyl)nicotinamide] | 0.1 to 1
Cn1cc(-c2cnc(N)c(C(=O)N[C@@H]3CCN(C(=O)c4ccc(-c5cnn(C6CCOCC6)c5)cc4)C3)c2)cn1 [Example 509, (R)-2-amino-5-(1-methyl-1H-pyrazol-4-yl)-N-(1-(4-(1-(tetrahydro-2H-pyran-4-yl)-1H-pyrazol-4-yl)benzoyl)pyrrolidin-3-yl)nicotinamide] | > 1
Cn1cc(-c2cnc(N)c(C(=O)N[C@@H]3CCN(C(=O)C=Cc4ccccc4)C3)c2)cn1 [Example 424, (R)-2-amino-N-(1-cinnamoylpyrrolidin-3-yl)-5-(1-methyl-1H-pyrazol-4-yl)nicotinamide] | > 1
Cn1cc(-c2cnc(N)c(C(=O)N[C@@H]3CCN(C(=O)c4ccc(-c5ccc(C#N)cc5)cc4)C3)c2)cn1 [Example 726, (R)-2-amino-N-(1-(4′-cyano-[1,1′-biphenyl]-4-carbonyl)pyrrolidin-3-yl)-5-(1-methyl-1H-pyrazol-4-yl)nicotinamide] | 0.1 to 1
Cn1cc(-c2cnc(N)c(C(=O)N[C@@H]3CCN(C(=O)c4ccc(-c5ccc(Cl)cc5)cc4)C3)c2)cn1 [Example 377, (R)-2-amino-N-(1-(4′-chloro-[1,1′-biphenyl]-4-carbonyl)pyrrolidin-3-yl)-5-(1-methyl-1H-pyrazol-4-yl)nicotinamide] | 0.1 to 1
Nc1ncc(-c2cnn(C3CCNCC3)c2)cc1C(=O)N[C@@H]1CCN(CC2CC=CCC2)C1 (stereo partly drawn) [Example 169, 2-amino-N-((3R)-1-(cyclohex-3-en-1-ylmethyl)pyrrolidin-3-yl)-5-(1-(piperidin-4-yl)-1H-pyrazol-4-yl)nicotinamide] | > 1
Cn1cc(-c2cnc(N)c(C(=O)N[C@@H]3CCN(C(=O)C4Cc5cc(Cl)ccc5O4)C3)c2)cn1 (stereo partly drawn) [Example 404, 2-amino-N-((3R)-1-(5-chloro-2,3-dihydrobenzofuran-2-carbonyl)pyrrolidin-3-yl)-5-(1-methyl-1H-pyrazol-4-yl)nicotinamide] | > 1
Cn1cc(-c2cnc(N)c(C(=O)N[C@@H]3CCN(C(=O)c4cccc(-c5cccc(C(=O)N6CCSCC6)c5)c4)C3)c2)cn1 [Example 463, (R)-2-amino-5-(1-methyl-1H-pyrazol-4-yl)-N-(1-(3′-(thiomorpholine-4-carbonyl)-[1,1′-biphenyl]-3-carbonyl)pyrrolidin-3-yl)nicotinamide] | > 1
